The pKd is −log10 of the Kd, conventionally taken in molar units. Higher therefore signals a small Kd.

The assay concerns the target human polyclonal IgG. Nature of the assay: Isothermal titration calorimetry (ITC) of IgG:ligand binding in solution. Conditions: 25° C, PBS pH 7.4, peptide in solution, independent binding model. On the procedure: Measurements of IgG-binding affinity in solution by isothermal titration calorimetry (ITC): Experimental determination of the binding free energy of the IgG:WQRHGI (SEQ ID NO:1) complex was performed by ITC using a Nano ITC Low Volume calorimeter (TA Instruments, New Castle, DE). […] All solutions were filtered through a 0.22 p.m syringe filter prior to use. Ten injections were performed for each measurement. Background energy from peptide dilution was determined by performing 10 injections of 5 μL of a 2 mg/mL solution of WQRHGI (SEQ ID NO:1) in PBS pH 7.4. The titration data were analyzed using NanoAnalyze software (TA Instruments) and plotted using an independent fitting, which fits the resultant Wiseman plot with parameters corresponding to a non-competitive single-site binding phenomenon in order to calculate the binding affinity (K(D(ITC)), and the stoichiometry (N) of the interaction. A constant blank was also utilized in the fitting to account for the heat of dilution of the IgG substrate.
Characterization of binding affinity for IgG-binding peptide variants WQRHGI (SEQ ID NO:1) and MWRGWQ (SEQ ID NO:2) in non-competitive conditions: Candidate peptide ligands WQRHGI (SEQ ID NO:1) and MWRGWQ (SEQ ID NO:2) were selected for experimental evaluation of IgG binding in non-competitive conditions (pure IgG in solution). […]
On the technique in general: ITC needs no label: the signal is the heat of the interaction.

pKd: −log10 of the molar value.

Regarding WQRHGI, the pKd is 4.23.

Source of the values: US20230399358A1, “IMMUNOGLOBULIN PURIFICATION PEPTIDES AND THEIR USE” (North Carolina State University, priority 2019, published 2023).
